# Test results as given in patent publication US12226425B2, “Inhibitors of ARG1 and/or ARG2” (Arcus Biosciences, Inc., priority 2018, dated 2025).
# pIC50: −log10 of the molar value.
# Target: T1, recombinant human ARG1 (Homo sapiens, UniProt P05089)
# T1 sequence (P05089 1-322): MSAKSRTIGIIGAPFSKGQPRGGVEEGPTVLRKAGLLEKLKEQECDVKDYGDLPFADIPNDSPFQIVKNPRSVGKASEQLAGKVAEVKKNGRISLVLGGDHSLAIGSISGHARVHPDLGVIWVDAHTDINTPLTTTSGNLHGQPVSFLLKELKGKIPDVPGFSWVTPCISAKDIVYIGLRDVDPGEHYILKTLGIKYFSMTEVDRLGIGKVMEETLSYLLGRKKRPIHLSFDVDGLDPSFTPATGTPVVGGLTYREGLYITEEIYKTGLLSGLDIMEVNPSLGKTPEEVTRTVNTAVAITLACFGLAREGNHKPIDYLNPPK
# Assay: Arginase coupled enzymatic assay using recombinant human ARG1
# Format: biochemical
# Conditions: 2 nM ARG1, 0.8 mM L-Arginine, 10 mM sodium phosphate pH 7.4, 0.1 mM MnCl2, 37° C., absorption at 570 nm; read-out: hARG1 potency (IC50)
# Procedure: Purified recombinant human ARG1 and ARG2 were prepared in 50 mM Bicine, pH 8.5, 100 μM MnCl2, 20% glycerol and 1mM DTT at a final stock concentration of 14.4 μM and 7.56 μM respectively. 2.5 nM of either ARG1 or ARG2 were incubated with varying concentrations of compounds in 10 mM sodium phosphate, pH 7.4, 0.1 mM MnCl2 and 2.5% DMSO in a total volume of 40 μl in a 384-well microplate (Corning™ #3640) at 37° C. for 1 h. The arginase enzymatic reaction was initiated by addition of 10 μl of 4 mM L-Arginine pre-incubated in 10 mM sodium phosphate, pH 7.4, and 0.1 mM MnCl2 at 37° C. into the enzyme and compound mixture, giving the final reaction conditions: 2 nM of ARG1 or ARG2 and 0.8 mM of L-Arginine in 10 mM sodium phosphate, pH 7.4, 0.1 mM MnCl2 and 2% DMSO with varying concentrations of compounds. Following 2 h incubation at 37° C., the arginase enzymatic reaction was stopped by transfer of 10 μl of reaction into 10 μl of detection mix (204 μM Amino-2-Borono-6-Hexanoic Acid, 0.25 μl Arginase Enzyme mix, 0.25 μl Arginase Developer, 0.25 μl Arginase Converter Enzyme in Arginase Assay Buffer from Arginase Activity Colorimetric Assay Kit, BioVision Inc. #K755-100) in a transparent 384-well microplate (Greiner #781801). The plate was immediately put into a plate reader (Synergy™ Neo2 Multi-Mode Microplate Reader) to monitor absorption at 570 nm at 37° C. Absorption values at 12˜20 min were used to calculate compound potency. The value of the DMSO blank (MIN inhibition=100% activity) was used as a negative control. The positive control was established by adding 8 μl of enzyme and DMSO mix into 10 μl of detection mix followed by addition of 2 μl of L-Arginine (MAX inhibition=0% activity). To calculate the percent activity, Equation 1 was used. Abs570nm is the value at a given compound concentration:
# A counter-screen was performed to identify any inhibition of the coupling enzymes by the test compounds. 10 μl of 0.26 mM of urea with varying concentrations of compounds in 10 mM sodium phosphate, pH 7.4, 0.1 mM MnCl2 and 2% DMSO were added into 10 μl of detection mix in place of the arginase enzymatic reaction mix. Absorption was monitored at 570 nm as described above. The values of a no substrate blank (without urea; MAX inhibition=0% activity) and a DMSO blank (MIN inhibition=100% activity) were used as positive and negative controls respectively. […] Inactivity in the counter-screen was used to confirm that results accurately reflected IC50 values for ARG1 and ARG2.
row,pIC50,SMILES
1,> 7.00,CN[C@@]1(C(=O)O)c2cc(C3(N)CC(C)(C)C3)c(F)cc2C[C@@H]1CCCB(O)O
2,< 6.00,Cc1ccc2c(c1)[C@@](N)(C(=O)O)[C@@H](CCCB(O)O)C2
3,> 7.00,CN[C@@]1(C(=O)O)c2cc([C@H]3CCCN3)c(F)cc2C[C@@H]1CCCB(O)O
4,6.00 to 7.00,CN[C@@]1(C(=O)O)c2cc(C3(C(N)=O)CCC3)c(F)cc2C[C@@H]1CCCB(O)O
5,6.00 to 7.00,N[C@@]1(C(=O)O)c2cc(Cl)ccc2C[C@@H]1CCCB(O)O
6,6.00 to 7.00,N[C@@]1(C(=O)O)c2ccccc2C[C@@H]1CCCB(O)O
7,< 6.00,NC1CN(c2ccc3c(c2)C[C@H](CCCB(O)O)[C@]3(N)C(=O)O)C1
8,> 7.00,CN[C@@]1(C(=O)O)c2cc(CN3CCCC3)c(F)cc2C[C@@H]1CCCB(O)O
9,> 7.00,CN[C@@]1(C(=O)O)c2cc(C3(C(C)(C)N)CCC3)c(F)cc2C[C@@H]1CCCB(O)O
10,< 6.00,CN[C@@]1(C(=O)O)c2cccc(OC)c2C[C@@H]1CCCB(O)O
11,> 7.00,CN[C@@]1(C(=O)O)c2cc(-c3cccc(CN)c3)c(Cl)cc2C[C@@H]1CCCB(O)O
12,6.00 to 7.00,CN[C@@]1(C(=O)O)c2cc(-c3ncccc3C)c(F)cc2C[C@@H]1CCCB(O)O
13,> 7.00,CC[C@H](N)c1cc2c(cc1Cl)C[C@H](CCCB(O)O)[C@]2(NC)C(=O)O
14,6.00 to 7.00,NCCc1ccc2c(c1)C[C@H](CCCB(O)O)[C@]2(N)C(=O)O
15,> 7.00,CN[C@@]1(C(=O)O)c2cc(CCCN)c(F)cc2C[C@@H]1CCCB(O)O
16,> 7.00,CN[C@@]1(C(=O)O)c2cc([C@H](N)C(C)C)c(Cl)cc2C[C@@H]1CCCB(O)O
17,6.00 to 7.00,CN[C@@]1(C(=O)O)c2cc(CN3CC(F)(F)C3)c(Cl)cc2C[C@@H]1CCCB(O)O
18,> 7.00,CN[C@@]1(C(=O)O)c2cc(Cl)c(CN)cc2C[C@@H]1CCCB(O)O
19,> 7.00,CN[C@@]1(C(=O)O)c2cc(-c3ccc(CN)cc3)c(Cl)cc2C[C@@H]1CCCB(O)O
20,6.00 to 7.00,CN[C@@]1(C(=O)O)c2cc(-c3ncccc3N)c(F)cc2C[C@@H]1CCCB(O)O
21,> 7.00,CN[C@@]1(C(=O)O)c2cc(CN3CC[C@@H](F)C3)c(F)cc2C[C@@H]1CCCB(O)O
22,> 7.00,CN[C@@]1(C(=O)O)c2cc([C@@H](C)N)c(Cl)cc2C[C@@H]1CCCB(O)O
23,> 7.00,CC[C@@](C)(N)c1cc2c(cc1F)C[C@H](CCCB(O)O)[C@]2(NC)C(=O)O
24,6.00 to 7.00,CN[C@@]1(C(=O)O)c2cc(-c3cccnc3)c(F)cc2C[C@@H]1CCCB(O)O
25,6.00 to 7.00,CN[C@@]1(C(=O)O)c2cc(-c3ccccn3)c(F)cc2C[C@@H]1CCCB(O)O

row,pIC50,SMILES
1,> 7.00,CN[C@@]1(C(=O)O)c2cc(C3(N)CC3)c(F)cc2C[C@@H]1CCCB(O)O
2,6.00 to 7.00,CN[C@@]1(C(=O)O)c2cc([C@H](N)C(F)(F)F)ccc2C[C@@H]1CCCB(O)O
3,> 7.00,CCC(N)(CC)c1cc2c(cc1F)C[C@H](CCCB(O)O)[C@]2(NC)C(=O)O
4,< 6.00,N#Cc1ccc2c(c1)[C@@](N)(C(=O)O)[C@@H](CCCB(O)O)C2
5,> 7.00,CN[C@@]1(C(=O)O)c2cc([C@@H](C)N)ccc2C[C@@H]1CCCB(O)O
6,> 7.00,CN[C@@]1(C(=O)O)c2cc([C@@H](C)N)c(F)cc2C[C@@H]1CCCB(O)O
7,> 7.00,CN[C@@]1(C(=O)O)c2cc(CN3CCCCC3)c(F)cc2C[C@@H]1CCCB(O)O
8,> 7.00,CN[C@@]1(C(=O)O)c2cc(C3(CNC(=O)[C@H](C)N)CCC3)c(F)cc2C[C@@H]1CCCB(O)O
9,> 7.00,NCCc1ccc2c(c1)[C@@](N)(C(=O)O)[C@@H](CCCB(O)O)C2
10,> 7.00,CN[C@@]1(C(=O)O)c2cc([C@H](C)N)c(OC)cc2C[C@@H]1CCCB(O)O
11,< 6.00,N[C@@]1(C(=O)O)c2cccc(Br)c2C[C@@H]1CCCB(O)O
12,> 7.00,CN[C@@]1(C(=O)O)c2cc(CNC3CC3)c(F)cc2C[C@@H]1CCCB(O)O
13,< 6.00,N[C@@]1(C(=O)O)c2cccnc2C[C@@H]1CCCB(O)O
14,6.00 to 7.00,CN[C@@]1(C(=O)O)c2cc([C@@H](N)C(F)(F)F)ccc2C[C@@H]1CCCB(O)O
15,> 7.00,CN[C@@]1(C(=O)O)c2cc(CN)ccc2C[C@@H]1CCCB(O)O
16,> 7.00,CN[C@@]1(C(=O)O)c2cc(C(C)(C)C(C)(C)N)c(F)cc2C[C@@H]1CCCB(O)O
17,> 7.00,CN[C@@]1(C(=O)O)c2cc(C3(CN)CCC3)c(F)cc2C[C@@H]1CCCB(O)O
18,> 7.00,CC[C@](C)(N)c1cc2c(cc1F)C[C@H](CCCB(O)O)[C@]2(NC)C(=O)O
19,> 7.00,NC1(c2cc3c(cc2F)C[C@H](CCCB(O)O)[C@]3(N)C(=O)O)CCC1
20,> 7.00,CC[C@H](NC)c1cc2c(cc1F)C[C@H](CCCB(O)O)[C@]2(NC)C(=O)O
21,> 7.00,NCc1ccc2c(c1)[C@@](N)(C(=O)O)[C@@H](CCCB(O)O)C2
22,> 7.00,CN[C@@]1(C(=O)O)c2cc(-c3ccccc3CN)c(F)cc2C[C@@H]1CCCB(O)O
23,6.00 to 7.00,CN[C@@]1(C(=O)O)c2cc(CNC(C)=O)ccc2C[C@@H]1CCCB(O)O
24,> 7.00,CN[C@@]1(C(=O)O)c2cc(CN(C)C)c(Cl)cc2C[C@@H]1CCCB(O)O
25,6.00 to 7.00,NCc1cccc2c1C[C@H](CCCB(O)O)[C@]2(N)C(=O)O

row,pIC50,SMILES
1,> 7.00,CN[C@@]1(C(=O)O)c2cc(-c3cc(F)ccc3CN)c(F)cc2C[C@@H]1CCCB(O)O
2,> 7.00,CN[C@@]1(C(=O)O)c2cc([C@H](N)C3CC3)c(F)cc2C[C@@H]1CCCB(O)O
3,6.00 to 7.00,CN[C@@]1(C(=O)O)c2cc(CNCC(F)(F)F)c(F)cc2C[C@@H]1CCCB(O)O
4,> 7.00,CN[C@@]1(C(=O)O)c2cc(C(C)(C)N)c(F)cc2C[C@@H]1CCCB(O)O
5,> 7.00,CN[C@@]1(C(=O)O)c2cc(C(C)(C)CN)c(F)cc2C[C@@H]1CCCB(O)O
6,> 7.00,CN[C@@]1(C(=O)O)c2cc(C3(N)CCC3)ccc2C[C@@H]1CCCB(O)O
7,> 7.00,CN[C@@]1(C(=O)O)c2cc(CNC(C)C)c(F)cc2C[C@@H]1CCCB(O)O
8,> 7.00,CN[C@@]1(C(=O)O)c2cc(CN3CCCC3(C)C)c(F)cc2C[C@@H]1CCCB(O)O
9,< 6.00,N[C@@]1(C(=O)O)c2cccc(-c3cn[nH]c3)c2C[C@@H]1CCCB(O)O
10,> 7.00,CC(N)c1ccc2c(c1)[C@@](N)(C(=O)O)[C@@H](CCCB(O)O)C2 (stereo partly drawn)
11,> 7.00,CN[C@@]1(C(=O)O)c2cc(-c3ccc(CN)cc3)ccc2C[C@@H]1CCCB(O)O
12,> 7.00,NCc1ccc2c(c1)C[C@H](CCCB(O)O)[C@]2(N)C(=O)O
13,6.00 to 7.00,N[C@@]1(C(=O)O)c2ccc(Cl)cc2C[C@@H]1CCCB(O)O
14,> 7.00,CN[C@@]1(C(=O)O)c2cc([C@@H](N)C3CC3)c(Cl)cc2C[C@@H]1CCCB(O)O
15,> 7.00,CN[C@@]1(C(=O)O)c2cc(C3(N)CCC3)c(F)cc2C[C@@H]1CCCB(O)O
16,6.00 to 7.00,CN[C@@]1(C(=O)O)c2cc(Cc3ccccn3)c(Cl)cc2C[C@@H]1CCCB(O)O
17,6.00 to 7.00,CN[C@@]1(C(=O)O)c2cc(CN3CCC(F)(F)CC3)c(F)cc2C[C@@H]1CCCB(O)O
18,> 7.00,CN[C@@]1(C(=O)O)c2cc([C@@H]3CCCN3)c(F)cc2C[C@@H]1CCCB(O)O
19,> 7.00,CN[C@@]1(C(=O)O)c2ccc(CN)cc2C[C@@H]1CCCB(O)O
20,6.00 to 7.00,CN[C@@]1(C(=O)O)c2cc(Nc3ccccn3)c(F)cc2C[C@@H]1CCCB(O)O
21,> 7.00,CC[C@@H](N)c1cc2c(cc1F)C[C@H](CCCB(O)O)[C@]2(NC)C(=O)O
22,< 6.00,Cc1ccc2c(c1)C[C@H](CCCB(O)O)[C@]2(N)C(=O)O
23,< 6.00,C[C@]1(CCCB(O)O)Cc2ccccc2[C@@]1(N)C(=O)O
24,> 7.00,CN[C@@]1(C(=O)O)c2cc(CNC(=O)[C@H](C)N)ccc2C[C@@H]1CCCB(O)O
25,> 7.00,CN[C@@]1(C(=O)O)c2cc([C@H](C)N)c(C)cc2C[C@@H]1CCCB(O)O
